Key:
[1] = Liver microsomal stability, rat; conditions: for Rem @ RLM × 30 min: rat liver microsomes, 1 μM compound, 0.5 mg/ml protein; for half-life at 1 μM / microsomal CLint at 1 μM: rat, liver microsomes, pH 7.4
Experimental: (§1) The assessment of metabolic stability of testing compounds was performed using human, mouse, rat, dog and monkey liver microsomes (20 mg protein/ml). Each reaction mixture contained 42.5 μL of 0.1 M potassium phosphate buffer pH 7.4, containing respective LM protein (final concentration 0.5 mg/ml). 2.5 μL of the compound stock solution was added in it (1 μM final concentration). The reaction was initiated by the addition of 5 μL NADPH solution (final Concentration 1 mM). At different time points (0, 5, 15, and 30 minutes), samples were quenched with 200 μL of cold acetonitrile containing ISTD Propranolol. Samples were centrifuged at 3500 rpm for 20 mM at 4° C. Supernatant was subjected to LC-MS/MS analysis for quantification. Verapamil was used as a positive control.

[2] = Liver microsomal stability, mouse; conditions: for Rem @ MLM × 30 min: mouse liver microsomes, 1 μM compound, 0.5 mg/ml protein; for half-life at 1 μM / microsomal CLint at 1 μM: mouse, liver microsomes, pH 7.4
Experimental: as §1

[3] = Liver microsomal stability, human; conditions: for Rem @ HLM × 30 min: human liver microsomes, 1 μM compound, 0.5 mg/ml protein; for half-life at 1 μM / microsomal CLint at 1 μM: human, liver microsomes, pH 7.4
Experimental: as §1

[4] = biological target: aryl hydrocarbon receptor (AhR) (Mus musculus (Mouse), UniProt P30561); assay: AhR ligand screening: AhRE-luciferase reporter in transfected Hepa1 cells; type: cell-based; conditions: for Fold @ 1 nM: fold change of luciferase expression at 1 nM test compound relative to vehicle (0.1% DMSO); for Fold @ 100 nM: fold change of luciferase expression at 100 nM test compound relative to vehicle (0.1% DMSO); for Fold @ 10 uM: fold change of luciferase expression at 10 uM test compound relative to vehicle (0.1% DMSO); for Fold relative to benchmark @ 100 nM: luciferase expression at 100 nM test compound relative to 100 nM benchmark compound 11-cl-BBQ
Outline: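 Mouse Hepa1 cells transfected with an AhRE-luciferase reporter were plated at 1×10^4 cells/well, grown overnight, then exposed to compounds. Cell lysates were assayed for luciferase by luminometry, with results given as fold induction over 0.1% DMSO vehicle.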

Chain of aryl hydrocarbon receptor (AhR) (P30561 10-805): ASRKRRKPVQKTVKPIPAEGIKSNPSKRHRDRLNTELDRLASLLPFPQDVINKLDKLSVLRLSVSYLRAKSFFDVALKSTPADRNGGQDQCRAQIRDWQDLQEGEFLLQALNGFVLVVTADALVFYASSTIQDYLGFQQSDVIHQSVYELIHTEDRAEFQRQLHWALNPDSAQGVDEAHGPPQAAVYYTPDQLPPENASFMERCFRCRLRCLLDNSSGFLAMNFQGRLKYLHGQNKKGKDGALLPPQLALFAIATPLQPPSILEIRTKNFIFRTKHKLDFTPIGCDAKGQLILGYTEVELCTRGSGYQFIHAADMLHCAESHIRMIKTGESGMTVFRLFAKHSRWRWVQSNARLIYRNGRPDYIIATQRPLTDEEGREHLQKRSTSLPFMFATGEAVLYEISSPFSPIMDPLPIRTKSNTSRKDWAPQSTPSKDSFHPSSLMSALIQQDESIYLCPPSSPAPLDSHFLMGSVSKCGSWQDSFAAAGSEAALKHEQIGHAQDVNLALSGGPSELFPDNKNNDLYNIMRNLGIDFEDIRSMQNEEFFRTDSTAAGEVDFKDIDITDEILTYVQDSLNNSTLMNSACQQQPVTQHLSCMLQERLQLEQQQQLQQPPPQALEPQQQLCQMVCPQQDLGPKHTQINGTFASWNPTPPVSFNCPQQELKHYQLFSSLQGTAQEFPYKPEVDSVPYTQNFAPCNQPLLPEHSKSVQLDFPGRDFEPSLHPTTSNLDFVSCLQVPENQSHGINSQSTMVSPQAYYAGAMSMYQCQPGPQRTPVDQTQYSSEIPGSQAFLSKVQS
Chain of aryl hydrocarbon receptor (AhR) (P53762 whole entry partner): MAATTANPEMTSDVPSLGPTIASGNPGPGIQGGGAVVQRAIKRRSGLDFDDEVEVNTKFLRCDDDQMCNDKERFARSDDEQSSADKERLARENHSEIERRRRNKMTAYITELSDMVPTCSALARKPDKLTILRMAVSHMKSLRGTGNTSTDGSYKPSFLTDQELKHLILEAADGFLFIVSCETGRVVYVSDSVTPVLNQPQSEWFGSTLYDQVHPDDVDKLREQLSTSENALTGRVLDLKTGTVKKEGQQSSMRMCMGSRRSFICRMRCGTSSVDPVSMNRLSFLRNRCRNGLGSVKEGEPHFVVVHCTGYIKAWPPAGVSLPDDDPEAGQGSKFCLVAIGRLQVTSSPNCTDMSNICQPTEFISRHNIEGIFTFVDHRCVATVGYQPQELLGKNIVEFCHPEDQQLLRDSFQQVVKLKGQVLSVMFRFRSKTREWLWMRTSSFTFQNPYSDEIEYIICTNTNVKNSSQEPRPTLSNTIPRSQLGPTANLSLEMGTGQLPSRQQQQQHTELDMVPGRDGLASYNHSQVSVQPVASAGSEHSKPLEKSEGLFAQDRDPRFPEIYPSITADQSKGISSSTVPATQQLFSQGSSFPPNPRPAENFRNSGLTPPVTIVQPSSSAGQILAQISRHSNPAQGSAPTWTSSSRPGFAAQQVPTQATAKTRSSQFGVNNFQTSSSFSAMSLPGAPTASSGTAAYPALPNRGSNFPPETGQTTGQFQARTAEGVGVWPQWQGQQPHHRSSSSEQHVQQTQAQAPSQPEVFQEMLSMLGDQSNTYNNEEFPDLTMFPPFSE

| Structure (SMILES) | Rem @ RLM × 30 min [1] | half-life at 1 μM [1] | microsomal CLint at 1 μM [1] | Rem @ MLM × 30 min [2] | half-life at 1 μM [2] | microsomal CLint at 1 μM [2] | Rem @ HLM × 30 min [3] | half-life at 1 μM [3] | microsomal CLint at 1 μM [3] | Fold @ 1 nM [4] | Fold @ 100 nM [4] | Fold @ 10 uM [4] | Fold relative to benchmark @ 100 nM [4] |
| --- | --- | --- | --- | --- | --- | --- | --- | --- | --- | --- | --- | --- | --- |
| CN(C)c1ccc(C(=O)c2c[nH]c3ccc(Cl)cc23)cc1 [Compound 891] | 45.2% | 31 min | 44.7 µL/min/mg | 52.4% | 36.3 min | 38.2 µL/min/mg | 54.3% | 42.4 min | 32.7 µL/min/mg | 1 fold | 1 fold | 21 fold | 0.02 fold |
| O=C(c1ccc(SC(F)(F)F)cc1)c1c[nH]c2ccc(Cl)cc12 [Compound 884] | 23.1% | 14.3 min | 96.7 µL/min/mg | 22.2% | 13.9 min | 100 µL/min/mg | 81.2% | 98.8 min | 14 µL/min/mg | 1 fold | 2 fold | 16 fold | 0.04 fold |
| O=C(c1ccccc1)c1c[nH]c2ccc(Cl)cc12 [Compound 892] | 64.9% | 57 min | 24.3 µL/min/mg | 36.7% | 21 min | 66.1 µL/min/mg | 24.7% | 15.3 min | 90.7 µL/min/mg | 1 fold | 1 fold | 15 fold | 0.02 fold |
| O=C(c1cccc(Cl)c1Cl)c1c[nH]c2ccc(Cl)cc12 [Compound 889] | 33.5% | 25.6 min | 54.2 µL/min/mg | 43.5% | 33.9 min | 40.9 µL/min/mg | 30.2% | 22.6 min | 61.2 µL/min/mg | 1 fold | 1 fold | 5 fold | 0.02 fold |
| O=C(c1ccc(Cl)cc1Cl)c1c[nH]c2ccc(Cl)cc12 [Compound 890] | 37.4% | 29 min | 47.8 µL/min/mg | 39.3% | 28.2 min | 49.1 µL/min/mg | 44.7% | 35.2 min | 39.4 µL/min/mg | 1 fold | 2 fold | 17 fold | 0.04 fold |
| O=C(c1cccc2ccccc12)C1CN(C(=O)c2ccccc2)c2ccc(Cl)cc21 (stereo not shown) [Compound 521] | 45.5% | 24.8 min | 56 µL/min/mg | 64.6% | 60.9 min | 23 µL/min/mg | 58.0% | 40.3 min | 34 µL/min/mg | 1 fold | 1 fold | 1 fold | 0.07 fold |
| CCc1ccc(S(=O)(=O)n2c(-c3cccc4ccccc34)nc3ccc(Cl)cc32)cc1 [Compound 776] | 27.5% | 16.3 min | 84.9 µL/min/mg | 23.9% | 14.6 min | 94.7 µL/min/mg | 28.3% | 16.4 min | 84.6 µL/min/mg | 1 fold | 15 fold | 20 fold | 0.6 fold |
| COc1ccc(C(=O)c2c[nH]c3ccc(Cl)cc23)cc1 [Compound 894] | 58.1% | 43 min | 32.3 µL/min/mg | 54.5% | 37.6 min | 36.9 µL/min/mg | 57.9% | 45.3 min | 30.6 µL/min/mg | 1 fold | 1 fold | 7 fold | 0.02 fold |

Results, then the compound that gave them:

| Rem @ RLM × 30 min [1] | half-life at 1 μM [1] | microsomal CLint at 1 μM [1] | Rem @ MLM × 30 min [2] | half-life at 1 μM [2] | microsomal CLint at 1 μM [2] | Rem @ HLM × 30 min [3] | half-life at 1 μM [3] | microsomal CLint at 1 μM [3] | Fold @ 1 nM [4] | Fold @ 100 nM [4] | Fold @ 10 uM [4] | Fold relative to benchmark @ 100 nM [4] | Structure (SMILES) |
| --- | --- | --- | --- | --- | --- | --- | --- | --- | --- | --- | --- | --- | --- |
| 45.5% | 31.9 min | 43.5 µL/min/mg | 28.2% | 19.3 min | 71.9 µL/min/mg | 52.7% | 36.3 min | 38.2 µL/min/mg | 1 fold | 21 fold | 28 fold | 0.84 fold | O=C(C1CC1)n1c(-c2cccc3ccccc23)nc2ccc(Cl)cc21 [Compound 774] |
| 57.1% | 36.5 min | 37.9 µL/min/mg | 49.3% | 29.4 min | 47.2 µL/min/mg | 54.2% | 33.9 min | 40.9 µL/min/mg | 1 fold | 16 fold | 44 fold | 0.55 fold | O=S(=O)(c1ccc2ccccc2c1)n1c(-c2cccc3ccccc23)nc2cc(Cl)ccc21 [Compound 785] |
| 25.6% | 14.8 min | 93.8 µL/min/mg | 22.1% | 13.4 min | 104 µL/min/mg | 27.4% | 16.1 min | 86.2 µL/min/mg | 1 fold | 31 fold | 40 fold | 1.07 fold | O=S(=O)(c1ccc2ccccc2c1)n1c(-c2cccc3ccccc23)nc2ccc(Cl)cc21 [Compound 786] |
|  |  |  |  |  |  |  |  |  | 1 fold | 2 fold | 56 fold | 0.08 fold | O=C(c1ccc(F)c(F)c1)n1c(-c2ccc3ccccc3c2)nc2cc(Cl)ccc21 [Compound 684] |
|  |  |  |  |  |  |  |  |  | 1 fold | 1 fold | 27 fold | 0.11 fold | O=C(c1ccc(F)c(F)c1)n1c(-c2c3ccccc3cc3ccccc23)nc2ccc(Cl)cc21 [Compound 642] |
|  |  |  |  |  |  |  |  |  | 1 fold | 23 fold | 22 fold | 0.88 fold | Cc1ccc(C(=O)n2c(-c3cccc4ccccc34)nc3cc(Cl)ccc32)cc1 [Compound 697] |
|  |  |  |  |  |  |  |  |  | 1 fold | 1 fold | 34 fold | 0.07 fold | O=C(c1ccccc1)n1c(-c2ccc3ccccc3c2)nc2ccc(F)cc21 [Compound 585] |
|  |  |  |  |  |  |  |  |  | 1 fold | 3 fold | 88 fold | 0.1 fold | Cn1ncc2c(-c3nc4cc(Cl)ccc4n3C(=O)c3ccc(F)c(F)c3)cccc21 [Compound 860] |
